# Measured values as given in ChEMBL document CHEMBL1201862, “PubChem BioAssay data set” (2004).
#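 Dose response: 5 concentrations. Exposure: 48 h. Format: 96-well plates. Endpoint: linear interpolation; highest concentration if not reached. The concentration for 50% growth inhibition is given as GI50.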 Activity calls are given as the source filed them. No stated cut-off is given here; in the data, active = GI50 up to about 1.1 µM and inactive = higher.
# Columns and labels:
# Assay in all cases: growth of human tumour cells (NCI), 48 h
# HCT-15 = system: HCT-15
# OVCAR-3 = system: OVCAR-3
# HT-29 = system: HT-29
# Malme-3M = system: Malme-3M
# NCI-H522 = system: NCI-H522
# SW-620 = system: SW-620
# HCT-116 = system: HCT-116
# NCI/ADR-RES = system: NCI/ADR-RES
# M14 = system: M14
# LOX IMVI = system: LOX IMVI
# DMS-273 = system: DMS-273
# HL-60 = system: HL-60
# Hs-578T = system: Hs-578T
# SK-MEL-2 = system: SK-MEL-2
# KM-20L2 = system: KM-20L2
# MOLT-4 = system: MOLT-4
# CCRF-CEM = system: CCRF-CEM
# A549 = system: A549
# UO-31 = system: UO-31
# DMS-114 = system: DMS-114
# PC-3 = system: PC-3
# HOP-18 = system: HOP-18
# EKVX = system: EKVX
# OVCAR-5 = system: OVCAR-5
# SNB-78 = system: SNB-78
# COLO 205 = system: COLO 205
# 786-0 = system: 786-0
# MCF7 = system: MCF7
# A498 = system: A498
# BT-549 = system: BT-549
# NCI-H460 = system: NCI-H460
# OVCAR-4 = system: OVCAR-4
# LXFL 529 = system: LXFL 529
# RPMI-8226 = system: RPMI-8226
# UACC-257 = system: UACC-257
# NCI-H23 = system: NCI-H23
# SK-MEL-28 = system: SK-MEL-28
# HOP-92 = system: HOP-92
# DLD-1 = system: DLD-1
# UACC-62 = system: UACC-62
# IGROV-1 = system: IGROV-1
# SN12C = system: SN12C
# U-251 = system: U-251
# HCC 2998 = system: HCC 2998
# HOP-62 = system: HOP-62
# OVCAR-8 = system: OVCAR-8
# SK-OV-3 = system: SK-OV-3
# SF-539 = system: SF-539
# KM12 = system: KM12
# RXF 393 = system: RXF 393
# SF-268 = system: SF-268
# SK-MEL-5 = system: SK-MEL-5
# SF-295 = system: SF-295
# SNB-19 = system: SNB-19
structure (smiles),measurement,setting,value
COc1cc(CNc2ccc(SC)cc2)cc(OC)c1OC,GI50,HCT-15,4.23 µM
same,GI50,OVCAR-3,3.68 µM (inactive)
same,GI50,HT-29,3.35 µM (inactive)
same,GI50,Malme-3M,7.29 µM (inactive)
same,GI50,NCI-H522,2.88 µM (inactive)
same,GI50,SW-620,3.46 µM (inactive)
same,GI50,HCT-116,4.71 µM (inactive)
same,GI50,NCI/ADR-RES,3.15 µM (inactive)
same,GI50,M14,3.27 µM (inactive)
same,GI50,LOX IMVI,5.75 µM (inactive)
same,GI50,DMS-273,4.48 µM (inactive)
same,GI50,HL-60,2.55 µM (inactive)
same,GI50,Hs-578T,11 µM (inactive)
same,GI50,SK-MEL-2,6.27 µM (inactive)
same,GI50,KM-20L2,4.31 µM (inactive)
same,GI50,MOLT-4,5.6 µM (inactive)
same,GI50,CCRF-CEM,6.65 µM (inactive)
same,GI50,A549,8.41 µM (inactive)
same,GI50,UO-31,10.9 µM (inactive)
same,GI50,DMS-114,3.37 µM (inactive)
same,GI50,PC-3,6.95 µM (inactive)
same,GI50,HOP-18,22.6 µM (inactive)
same,GI50,EKVX,27.1 µM (inactive)
same,GI50,OVCAR-5,17.2 µM (inactive)
same,GI50,SNB-78,53.8 µM (inactive)
same,GI50,COLO 205,3.47 µM (inactive)
same,GI50,786-0,8.2 µM (inactive)
same,GI50,MCF7,3.36 µM (inactive)
same,GI50,A498,13.6 µM (inactive)
same,GI50,BT-549,1.63 µM (inactive)
same,GI50,NCI-H460,4.38 µM (inactive)
same,GI50,OVCAR-4,27 µM (inactive)
same,GI50,LXFL 529,12.6 µM (inactive)
same,GI50,RPMI-8226,8.57 µM (inactive)
COc1ccc(N[C@@H]2c3cc4c(cc3C(c3cc(OC)c(O)c(OC)c3)[C@H]3C(=O)OCC32)OCO4)cc1OC (some centres not stated),GI50,HCT-15,> 100 µM
same,GI50,UACC-257,4.21 µM (inactive)
same,GI50,NCI/ADR-RES,> 19.9 µM (inactive)
same,GI50,NCI-H23,0.297 µM (active)
same,GI50,LOX IMVI,> 100 µM (inactive)
same,GI50,DMS-273,> 100 µM (inactive)
same,GI50,SK-MEL-28,> 19.9 µM (inactive)
same,GI50,HOP-92,> 100 µM (inactive)
same,GI50,EKVX,> 32.7 µM (inactive)
same,GI50,OVCAR-5,> 19.9 µM (inactive)
same,GI50,A498,> 100 µM (inactive)
same,GI50,OVCAR-4,20.3 µM (inactive)
COc1ccc(NCc2cc(OC)c(OC)c(OC)c2)cc1,GI50,HCT-15,0.217 µM
same,GI50,OVCAR-3,0.34 µM (active)
same,GI50,HT-29,0.176 µM (active)
same,GI50,DLD-1,0.345 µM (active)
same,GI50,UACC-62,0.271 µM (active)
same,GI50,IGROV-1,0.631 µM (active)
same,GI50,SN12C,0.53 µM (active)
same,GI50,NCI-H522,0.372 µM (active)
same,GI50,SW-620,0.234 µM (active)
same,GI50,U-251,0.439 µM (active)
same,GI50,HCT-116,0.367 µM (active)
same,GI50,M14,0.457 µM (active)
same,GI50,NCI-H23,0.513 µM (active)
same,GI50,LOX IMVI,0.519 µM (active)
same,GI50,DMS-273,0.143 µM (active)
same,GI50,HL-60,0.115 µM (active)
same,GI50,HCC 2998,0.277 µM (active)
same,GI50,SK-MEL-2,0.245 µM (active)
same,GI50,KM-20L2,0.228 µM (active)
same,GI50,MOLT-4,0.451 µM (active)
same,GI50,A549,0.578 µM (active)
same,GI50,HOP-62,0.378 µM (active)
same,GI50,OVCAR-8,0.851 µM (active)
same,GI50,SK-OV-3,0.504 µM (active)
same,GI50,SK-MEL-28,0.275 µM (active)
same,GI50,SF-539,0.34 µM (active)
same,GI50,HOP-92,2.15 µM (inactive)
same,GI50,KM12,0.13 µM (active)
same,GI50,RXF 393,0.342 µM (active)
same,GI50,SF-268,1 µM (active)
same,GI50,EKVX,4.97 µM (inactive)
same,GI50,COLO 205,0.233 µM (active)
same,GI50,786-0,0.647 µM (active)
same,GI50,SK-MEL-5,0.207 µM (active)
same,GI50,SF-295,0.242 µM (active)
same,GI50,A498,0.543 µM (active)
same,GI50,SNB-19,1.19 µM (inactive)
same,GI50,NCI-H460,0.359 µM (active)
same,GI50,OVCAR-4,21.4 µM (inactive)
same,GI50,LXFL 529,0.614 µM (active)
same,GI50,RPMI-8226,0.459 µM (active)
